Broadly, the TGI is the concentration giving total growth inhibition. A low value points to more potent growth arrest.

The values below come from PubChem BioAssay (NCI).

The structures appear in SMILES notation.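 Briefly, cells in 96-well plates were exposed to five compound concentrations for 48 h, and endpoints were estimated by linear interpolation. At the TGI there is no net growth.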

What all share (assay): DTP human tumour cell line panel, 48 h
For assay [1], the system named is KM20L2 colon.
In assay [2] the test system is DMS 273 small cell lung.
Assay [3] concerns LXFL 529 NSCLC.
For assay [4], the system named is HOP-18 NSCLC.

On to `Cc1cccc(C)c1NC(=O)CCC/C(CC(=O)c1ccc(F)cc1)=N\NC(=O)C(=O)NN`, for which the TGI in assay [1], in assay [2], in assay [3] and in assay [4] was more than 100 µM throughout.
With `Nc1ccc(-c2cc(C(=O)Nc3nccs3)[nH]c(=S)n2)cc1`, the TGI in assay [1], in assay [3] and in assay [4] was more than 100 µM throughout.
`C[P+](C)(C)C`: the TGI in assay [1], in assay [3] and in assay [4] was more than 100 µM in each case.
As for `O=C(Cc1nc2sc3c(c2c(=O)[nH]1)CCCC3)Nc1ccccc1`, the TGI in assay [1], in assay [2], in assay [3] and in assay [4] was more than 100 µM in each case.
Take `CCCCC(C)/C=C/C(=O)C1=C(O)/C(=C/C(=O)O)OC1=O` (stereo not given): the concentration for total growth inhibition (TGI) in assay [1], in assay [2], in assay [3] and in assay [4] was more than 100 µM each time.
For the compound `CCC/C=C\C=C\C1(NS(=O)(=O)c2ccc(C)cc2)CCC(C(C)(C)C)CC1` (stereo not given), the TGI in assay [1] is 35.6 µM; in assay [2] it was 27.9 µM; in assay [3], more than 100 µM; in assay [4], more than 100 µM.
In the case of `COC(=O)c1cccc2c3ccccc3c3ccccc3c12`, the TGI in assay [1] was more than 100 µM; in assay [2], more than 100 µM; in assay [3], 85.2 µM; in assay [4], more than 100 µM.
As to `N#Cc1ccc(/C=C(/C(=O)c2ccccc2)c2ccccc2)cc1`, the TGI is 31.2 µM in assay [1], 26.2 µM in assay [2], 20.4 µM in assay [3] and more than 55.1 µM in assay [4].
As to `CCOC(=O)C1C=C2O[C@@H]3OC4(CCCCC4)O[C@@H]3C2C2C(=O)CCC(=O)[C@@]12C(=O)OC` (stereo not given in full), the TGI in assay [1], in assay [2], in assay [3] and in assay [4] was more than 100 µM in each case.
Take `Cc1ccc(S(=O)(=O)NC(=O)NCCc2ccccc2)cc1`: the TGI in assay [1], in assay [3] and in assay [4] was more than 100 µM in each case.
For the compound `O=C1N2Cc3c4ccc5c3CN3C(=O)N6Cc7c(ccc(c7CN1C6(c1ccccc1)C23c1ccccc1)OCCOCCOc1cc(Br)c(Br)cc1OCCOCCO4)OCCOCCOc1cc(Br)c(Br)cc1OCCOCCO5` (stereo not given), the TGI in assay [1], in assay [2], in assay [3] and in assay [4] was more than 100 µM throughout.
In the case of `COC(=O)CCC(=O)N1C/C(=C\c2ccccc2)C(=O)/C(=C/c2ccccc2)C1`, the TGI in assay [1] turned out to be 3.82 µM; in assay [2], 2.73 µM; in assay [3] it was 4.13 µM; in assay [4], 6.85 µM.
In the case of `O=c1c2cc(Br)cc(Br)c2nc(CCCl)n1-c1ccc(O)c([N+](=O)[O-])c1`, the TGI stood at 36.9 µM in assay [2], 30.3 µM in assay [3] and 30.4 µM in assay [4].
For `O=C1/C(=C/c2ccc3c(c2)OCCO3)CCC/C1=C\c1ccc2c(c1)OCCO2`, the TGI in assay [1] is 37.5 µM; in assay [2] it was 43.9 µM; in assay [3], more than 100 µM; in assay [4], 80.2 µM.
As to `C1OC1CN1CCN(CC2CO2)CC1` (stereo not given), the TGI in assay [1], in assay [2], in assay [3] and in assay [4] was more than 100 µM throughout.
As for `CC1(C)CCCC2(C)C3C(O)CC2(C)C(O)C31` (stereo not given), the TGI in assay [1], in assay [3] and in assay [4] was more than 100 µM in each case.
For the compound `O=C(O)[C@@H]1OCCOCCO[C@@H](C(=O)O)[C@H](C(=O)O)OCCOCCO[C@H]1C(=O)O`, the TGI in assay [1], in assay [2], in assay [3] and in assay [4] was more than 100 µM in each case.
On to `N#Cc1c(-c2ccccc2)cc(-c2ccc(N)cc2)[nH]c1=O`, for which the TGI in assay [1], in assay [2], in assay [3] and in assay [4] was more than 100 µM throughout.
Consider `N#COc1ccc(Oc2ccccc2)cc1`, for which the TGI in assay [1] is more than 100 µM; in assay [2], 50.4 µM; in assay [3], more than 100 µM; in assay [4], more than 100 µM.
Regarding `C/C(=N\NC(N)=S)c1ccc(C)c(C)c1`, the TGI in assay [1], in assay [2], in assay [3] and in assay [4] was more than 100 µM each time.
On to `CC1=CC(C)(c2c[nH]c3ccccc23)CC(C)(C)c2c1[nH]c1ccccc21` (stereo not given), for which the figures for the TGI in assay [1], in assay [3] and in assay [4] were 31.4 µM, more than 100 µM and more than 100 µM, respectively.
On to `CCO/S(=N/S(=O)(=O)c1ccccc1)c1ccccc1[N+](=O)[O-]` (stereo not given), for which the TGI in assay [1], in assay [2], in assay [3] and in assay [4] was more than 100 µM each time.
For the compound `Cc1cc(N(CCC#N)CCC#N)ccc1N=Nc1cc(Cl)ccc1Cl`, the TGI stood at 29.6 µM in assay [2], 3.35 µM in assay [3] and 22.1 µM in assay [4].
